{"source": "paper PMC5218480", "about": "(PLoS ONE, 2017)", "test_system": "MV-4-11 cells", "assay": "Gene expression microarray analysis (Affymetrix PrimeView) and GSEA", "type": "cell-based, human", "settings": "ProbeSet 11717523_x_at; LIST B"}
{"smiles": "Nc1ccc(-c2cccs2)cc1NC(=O)c1ccc2c(c1)cc(C1CC1)n2CCN1CCOCC1", "note": "[ACY-1035]", "values": [{"measurement": "RFU, TMEM50B", "value": 85.32, "unit": "RFU"}]}
